Experimental findings from US5622967A, “Quinolone carboxamide Calpain inhibitors” (Sterling Winthrop, Inc., priority 1995, dated 1997) are described below.

The IC50 is the concentration that gives 50% inhibition.

The target of the test is T1, human calpain I (Homo sapiens, UniProt P07384).
T1 construct: The isolation of calpain from human erythrocytes was similar to that described by Wang et al. (1988); from tissue; host or cells: human red blood cells (packed red cells, American Red Cross); partially purified on DEAE-Sephacel and phenyl-Sepharose CL-4B
T1 sequence (P07384 1-714): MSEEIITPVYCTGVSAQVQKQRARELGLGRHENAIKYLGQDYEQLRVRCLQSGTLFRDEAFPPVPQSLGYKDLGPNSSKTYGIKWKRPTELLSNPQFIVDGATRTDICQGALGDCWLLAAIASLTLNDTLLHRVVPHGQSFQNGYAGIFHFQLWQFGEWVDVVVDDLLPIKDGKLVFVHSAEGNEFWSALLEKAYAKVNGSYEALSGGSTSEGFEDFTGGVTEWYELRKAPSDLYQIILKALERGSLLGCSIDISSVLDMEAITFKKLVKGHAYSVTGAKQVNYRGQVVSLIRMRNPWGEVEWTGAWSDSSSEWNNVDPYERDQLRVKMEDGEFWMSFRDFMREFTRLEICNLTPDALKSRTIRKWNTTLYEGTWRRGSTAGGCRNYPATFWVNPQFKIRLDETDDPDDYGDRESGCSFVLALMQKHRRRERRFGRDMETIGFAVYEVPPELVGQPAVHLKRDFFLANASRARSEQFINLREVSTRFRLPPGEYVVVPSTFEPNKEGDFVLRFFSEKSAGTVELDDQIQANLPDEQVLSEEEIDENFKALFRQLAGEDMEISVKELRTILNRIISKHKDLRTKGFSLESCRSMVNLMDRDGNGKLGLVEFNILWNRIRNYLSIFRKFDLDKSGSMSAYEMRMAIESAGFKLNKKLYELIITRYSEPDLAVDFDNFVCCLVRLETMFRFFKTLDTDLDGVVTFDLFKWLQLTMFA
T1 sequence (P04632 1-268 partner): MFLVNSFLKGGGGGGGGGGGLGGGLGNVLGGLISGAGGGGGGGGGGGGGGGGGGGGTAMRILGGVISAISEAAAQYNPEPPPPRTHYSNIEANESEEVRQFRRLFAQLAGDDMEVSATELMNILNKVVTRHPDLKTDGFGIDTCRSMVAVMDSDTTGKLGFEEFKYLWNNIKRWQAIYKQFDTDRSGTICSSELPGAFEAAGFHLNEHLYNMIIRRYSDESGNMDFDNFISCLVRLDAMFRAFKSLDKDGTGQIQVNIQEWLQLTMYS
The experiment in a line: Calpain I Inhibition Assay (3H-acetyl casein degradation). Type of test: biochemical. Conditions: human erythrocyte calpain I; 3H-acetyl Casein substrate; 25° C., 2 hours incubation; read-out: IC50 against human calpain I. On the procedure:
Compounds of the present invention were tested for calpain I inhibition activity using the following assay method.
Calpain I InhibitionAssay
Isolation of Human erythrocyte Calpain I
Human red blood cells were obtained from the Northeastern New York Chapter of the American Red Cross. The isolation of calpain from human erythrocytes was similar to that described by Wang et al. (1988). One unit of in-dated packed red cells was diluted with an equal volume of diluting/wash solution and centrifuged. The supernatant was removed and the procedure was repeated. The washed cells were pooled, lysed with 700 mL of lysing solution and centrifuged to remove cell debris. The membrane-free hemolysate was added to 500 mL DEAE-sephacel and the slurry was stirred gently at 4° C. for 1 hour.
Batch elution was done using DEAE-sephacel wash solution to remove a large amount of unwanted protein, most of which was hemoglobin. The slurry was poured into a column connected in tandem to a phenyl-sepharose CL-4B column. Material eluted from the DEAE-sephacel was applied directly to the phenyl-sepharose CL-4B. The phenyl-sepharose CL-4B column was washed first with 75 mM NaCl and then with no salt. Calpain begins to disassociate from the […] with the 75 mM NaCl but the majority should adhere to the column until the salt is removed. Fractions were collected (20 mL), assayed for caseinolytic activity with and without calpastatin and pooled accordingly. The pooled fractions were concentrated using an Amicon stirred cell equipped with a YK-10 membrane. Calpain was stored at 4° C. with 10 mM EDTA and 5 mM 2-mercaptoethanol and is stable for at least 6 months.
The tritated assay is a modification of that described by Gopalakrishna, R. and Barsky, S.H., Anal. Biochem., 148, 413,1985. All reagents, compound 25 ul, HEPES buffer 25 ul, CaCl2 50 ul, enzyme 50 ul, and ^3 H-acetyl Casein, were combined in 1 mL polystyrene titer plates. The plates were preincubated at 25° C. for 5 min with gentle shaking prior to the addition of substrate. The incubation was continued for an additional 2 hours and was terminated with the addition of 0.5 mL ice cold 5% TCA. Unlabled casein was added, samples were centrifuged and 0.5 mL of the supernatant was counted in 5 mL of Ready Protein liquid scintillation cocktail for 2 min. This assay measures ^3 H-acetyl Casein degradation as an endpoint for calpain activity.
Turning to `NC(=O)c1cn(-c2ccc(O)cc2)c2cc(-c3ccncc3)ccc2c1=O` [Example 1, 1,4-Dihydro-1-(4-hydroxyphenyl)-4-oxo-7-(4-pyridinyl)=3-quinolinecarboxamide], the IC50 is 2000 nM. The result for `NC(=O)c1cn(-c2ccc(O)cc2Cl)c2cc(-c3ccnnc3)ccc2c1=O` [Example 12, 1,4-Dihydro-1-(2-chloro-4-hydroxyphenyl)-4-oxo-7-(4-pyridazinyl)-3-quinolinecarboxamide] reads 1700 nM; that for `NC(=O)c1cn(-c2ccc(O)cc2Cl)c2cc(-c3cc[nH]n3)ccc2c1=O` [Example 13, 1,4-Dihydro-1-(2-chloro-4-hydroxyphenyl)-4-oxo-7-(3-pyrazolyl)-3-quinolinecarboxamide], 570 nM; that for `NC(=O)c1cn(-c2ccc(O)cc2Cl)c2cc(-c3ccoc3)ccc2c1=O` [Example 10, 1,4-Dihydro-1-(2-chloro-4-hydroxyphenyl)-4-oxo-7-(3-furyl)-3-quinolinecarboxamide], 1700 nM. The result for `NC(=O)c1cn(-c2ccc(O)cc2Cl)c2cc(-c3ccncc3)ccc2c1=O` [Example 8, 1,4-Dihydro-1-(2-chloro-4-hydroxyphenyl)-4-oxo-7-(4-pyridinyl)-3-quinolinecarboxamide] reads 600 nM; that for `NC(=O)c1cn(-c2ccc(O)cc2Cl)c2cc(-c3ccncc3Cl)ccc2c1=O` [Example 11], 1700 nM. As for `NC(=O)c1cn(-c2ccc(O)c(Cl)c2)c2cc(-c3ccncc3)ccc2c1=O` [Example 3, 1,4-Dihydro-1-(3-chloro-4-hydroxyphenyl)-4-oxo-7-(4-pyridinyl)-3-quinolinecarboxamide], the IC50 was 2000 nM. The result for `NC(=O)c1cn(-c2ccc(O)cc2F)c2cc(-c3ccncc3)ccc2c1=O` [Example 4, 1,4-Dihydro-1-(2-fluoro-4-hydroxyphenyl)-4-oxo-7-(4-pyridinyl)-3-quinolinecarboxamide] reads 7400 nM; that for `NC(=O)c1cn(-c2ccc(O)cc2C(F)(F)F)c2cc(-c3ccncc3)ccc2c1=O` [Example 7, 1,4-Dihydro-1-(2-trifluoromethyl-4-hydroxyphenyl)-4-oxo-7-(4-pyridinyl)-3-quinolinecarboxamide], 16000 nM. To `Cc1cc(O)ccc1-n1cc(C(N)=O)c(=O)c2ccc(-c3ccncc3)cc21` [Example 6, 1,4-Dihydro-1-(2-methyl-4-hydroxyphenyl)-4-oxo-7-(4-pyridinyl)-3-quinolinecarboxamide] belongs 510 nM. To `NC(=O)c1cn(-c2ccc(O)cc2Cl)c2cc(-c3cccnc3)ccc2c1=O` [Example 9, 1,4,Dihydro-1-(2-chloro-4-hydroxyphenyl)-4-oxo-7-(3-pyridinyl)-3-quinolinecarboxamide] belongs 12000 nM; to `NC(=O)c1cn(-c2ccc(O)c(F)c2)c2cc(-c3ccncc3)ccc2c1=O` [Example 5, 1,4-Dihydro-1-(3-fluoro-4-hydroxyphenyl)-4-oxo-7-(4-pyridinyl)-3-quinolinecarboxamide], 5000 nM; to `NC(=O)c1cn(-c2ccc(O)c(O)c2)c2cc(-c3ccncc3)ccc2c1=O` [Example 2, 1,4,Dihydro-1-(3.4-dihydroxyphenyl)-4-oxo-7-(4-pyridinyl),3-quinolinecarboxamide], 7000 nM.
